Experimental data published in patent publication US20120065265A1, “ALPHA-2-DELTA LIGANDS FOR NON-RESTORATIVE SLEEP” (Pfizer Inc., priority 2006, published 2012).

Test system: subjects with non-restorative sleep (NRS)
Assay: Randomized, double-blind, placebo- and active-controlled 4-way crossover study in an NRS population: efficacy
Assay type: in vivo, human
Settings: for RSQ-W Total Score, comparison with placebo: one-sided alpha 0.05; for RSQ-W Total Score, LS Mean (primary endpoint): po, 336 h
Method: STUDY DESIGN. […] Subjects were subsequently crossed over 3 times to receive the remaining treatments, each for 2 weeks followed by a 1—week washout period. […] Each treatment was administered at least 2 hours after a meal. DIAGNOSIS AND MAIN CRITERIA FOR INCLUSION. Subjects selected for the study were male and/or nonpregnant, nonlactating females between the ages of 18-64 years, inclusive, who regularly (≧3 times/week) awoke un-restored or un-refreshed for at least the previous 3 months, causing significant distress or impairment in social, occupational, or other important areas of functioning during the daytime.
EFFICACY & SAFETY EVALUATIONS. The primary endpoint in this study was the Restorative Sleep Questionnaire—Weekly (RSQ-W) Total Score at the end of each 2-week treatment period. The RSQ-W, below, is a patient-reported outcome measure of morning refreshment over the past week in which larger values of the total score correspond to greater refreshment. All remaining efficacy/outcomes endpoints were considered secondary. Safety data, including adverse event information, clinical laboratory values, physical examination, vital signs, and electrocardiograms (ECGs) were collected during the study.
STATISTICAL METHODS. The Full Analysis Set was used in the analyses of all efficacy/outcome endpoints. […] The Per-Protocol Analysis Set was used for sensitivity analyses of certain efficacy/outcome endpoints as appropriate. […] Protocol deviations included the major inclusion/exclusion criteria assessed prior to randomization and major protocol deviations or violations assessed after randomization. […] The Safety Analysis Set was used in the analyses of the safety data and consisted of all randomized subjects who took any study medication.
Each comparison was done at the nominal alpha=0.05 level (one-sided), recognizing that the probability of committing at least one Type I error could be greater than 0.05 but no more than 0.15.
MODEL-BASED SUMMARY. The primary endpoint in this study was the RSQ-W Total Score at the end of each 2-week treatment period. This endpoint was analyzed using a linear model including sequence, period, and treatment as fixed factors, and subject within sequence and within-subject error as random factors. First-order carryover effects were explored and tested at the 10% nominal level of significance. Pair-wise comparisons were made based on the final linear model. The point estimates and 90% confidence intervals (Cis) for the placebo-adjusted treatment effects were constructed using the least squares (LS) means and appropriate standard errors.
DESCRIPTIVE SUMMARY. For each item and Total Score of the RSQ-W, descriptive statistics were provided by treatment and visit.
For secondary/exploratory purposes, certain secondary efficacy endpoints were analyzed with model-based statistical procedures. […] All comparisons are considered secondary/exploratory, and each was done at the nominal alpha=0.05 level (one-sided). No multiple comparison adjustment was made. All secondary efficacy endpoints were summarized descriptively. For secondary/exploratory purposes, appropriate model-based statistical procedures similar to those for the primary endpoint were used to analyze the following scales and subscales: • Restorative Sleep Questionnaire—Daily (RSQ-D, below): weekly averages of Total Score; • Daytime Consequences of Sleep Questionnaire (DCSQ): Total Score; • Multidimensional Assessment of Fatigue (MAF): Global Fatigue Index, Impact Subscale; • Subjective Sleep Questionnaire (SSQ): Sleep Quality; • Sheehan Disability Scale (SDS): Total Score; • SF-36v2: Mental Component Summary, Physical Component Summary, Vitality Subscale; • Clinical Global Impression of Change (CGIC): Status Score; and • Patient Global Impression of Change (PGIC): Status Score.

[1] = COMPOUND A doses (25 mg and 50 mg)

| Compound | RSQ-D Total Score at Week 2 (COMPOUND A 25 mg) | RSQ-W Total Score, comparison with placebo (COMPOUND A 25 mg) | Evening Functioning Scale (COMPOUND A dose groups, similar level of functioning as with zolpidem) | MAF Impact Subscale score at Week 2, comparison with placebo [1] | RSQ-D Total Score at Week 2, comparison with placebo [1] | RSQ-W Total Score, LS Mean (primary endpoint) (25 mg) | RSQ-W Total Score, LS Mean (primary endpoint) (50 mg) | Treatment effect relative to placebo on the primary endpoint, the RSQ-W (conclusion) (subjects with non-restorative sleep, no dose stated) | RSQ-W Total Score, comparison with placebo (zolpidem 10 mg) |
| --- | --- | --- | --- | --- | --- | --- | --- | --- | --- |
| C[C@H]1CC(CN)(CC(=O)O)C[C@@H]1C [COMPOUND A, (3S,4S)-(1-aminomethyl-3,4-dimethyl-cyclopentyl)-acetic acid] | 61.5 | statistically significantly different from placebo | better functioning than while taking placebo | not statistically significantly different from placebo | no statistically significant differences from placebo | 63.6 | 62.5 | positive treatment effect relative to placebo |  |
| Cc1ccc(-c2nc3ccc(C)cn3c2CC(=O)N(C)C)cc1 [zolpidem, reference compound] |  |  |  |  |  |  |  |  | not statistically significantly different from placebo |
